# Measurements as given in patent US11684614B2, “Formulations of hydroxypyridonate actinide/lanthanide decorporation agents” (priority 2017, dated 2023).
# “And” between values parts separate entries of the source, which are not always exact repeats. Equal values may be shown once.
# Test: Repeated-treatment efficacy for removing an intravenous dose of 238Pu (excretion, tissue retention, clinical observations), female and male arms
# Format: in vivo, Swiss-Webster mice
# Settings: listed as 3,4,3-LI(1,2-HOPO)
# Experimental: The objective of this study was to characterize the efficacy of 3,4,3-L1(1,2-HOPO) at enhancing elimination from an internal plutonium burden in female and male Swiss-Webster mice administered a soluble citrate complex of ^238Pu and treated multiple times, starting at 24 hours after the exposure. Efficacy was evaluated by comparing the tissue contents, urinary and fecal excretions of ^238Pu in treated animals versus untreated animals.
# The medical countermeasure 3,4,3-L1(1,2-HOPO) was administered parenterally (ip) or orally (po) via consecutive injections or gavages (six daily or twelve twice daily) starting at 24 hours post contamination at the following four selected doses: 30 μmol/kg ip, 150 μmol/kg po, 300 μmol/kg po, and 600 μmol/kg po (equivalent to respective approximate human doses range of […], using the accepted conversion system of mouse doses into human equivalent doses—HED—based on body surface area). Oral doses also included the permeability enhancer selected during formulation development work.
# • Challenge isotope: ^238Pu • Challenge dose: 25 nCi (i.e., approximately 0.8 μCi/kg) • Route of contamination: Intravenous (iv) tail-vein • Route of treatment: Intraperitoneal Injection (ip) or Oral (po) • Frequency of treatment: Multiple (once- or twice-daily for 6 days) doses, starting 24 hr postcontamination • Treatment dose calculation: Dose calculations (mg/kg or μmol/kg) for the decorporation agent were based on the individual body weight measured after contamination. • Study Duration: 11 days, in-life
# c. […] Test article and control dose formulations were prepared within 1 day of dose administration, by weighing out the appropriate amount of test article, dispersing in vehicle. For ip solutions, the test article was used alone, while for oral suspensions, a mixture of test article and excipient (90:10, w:w) was used. The pH was adjusted to 7.0-7.4 for ip administration and 5.0-5.5 for oral administration with sterile NaOH. Dose formulations were prepared at room temperature and filter-sterilized. • Storage: 2-8° C.; refrigerated; protected from light. • Characterization: The concentration of each test article formulation was verified by high-performance liquid chromatography-mass spectrometry. • Test Article Handling: Test, reference, and control article formulations were handled with the use of eye protection, gloves, and a protective laboratory coat. • Correct Dose Assurance: The test article was weighed with calibrated balances. The administration of each dose formulation was properly documented, and the amount administered to each animal recorded.
# e. Experimental Procedures (In-Life Evaluations and Euthanasia) • Contamination: Single administration by intravenous (iv) tail-vein injection (0.2 mL injection volume) under isoflurane anesthesia. Three standard 0.2 mL injections were performed into polyethylene bottles and pre-loaded with aliquots of concentrated nitric acid on each injection day. Six female and six male mice were culled for necropsy 1 hr post-contamination and were used as standards. A11 standards were processed and counted together with the final samples to allow verification of the contamination dose. • Dose Administration: Single administration by intraperitoneal injection (ip) or oral gavage (po) under isoflurane anesthesia. • Mortality/Morbidity: Assessed at least once daily. • Clinical Observations: Recorded once daily (4 hr post-dose on day of treatment), or more often as clinical signs warranted. […]
structure (smiles),measurement,setting,value
"O=C(NCCCN(CCCCN(CCCNC(=O)c1cccc(=O)n1O)C(=O)c1cccc(=O)n1O)C(=O)c1cccc(=O)n1O)c1cccc(=O)n1O [3,4,3-L1(1,2-HOPO)]",% Recovered Dose-Female Animals-Urine per Day-Day 11 Necropsy,"animal group H, day 8, female mice",0.66% and 1.22% and 0.77% and 0.75% and 0.78% and 0.99% and 0.49% and 1.24%
same,% Recovered Dose-Female Animals-Urine per Day-Day 11 Necropsy,"animal group H, day 9, female mice",0.40% and 0.85% and 0.75% and 0.43% and 0.47% and 0.72% and 0.37% and 0.99%
same,% Recovered Dose-Female Animals-Urine per Day-Day 11 Necropsy,"animal group H, day 10, female mice",0.31% and 0.47% and 0.39% and 0.29% and 0.19% and 0.50% and 0.25% and 0.54%
same,% Recovered Dose-Female Animals-Urine per Day-Day 11 Necropsy,"animal group H, day 11, female mice",0.25% and 0.49% and 0.32% and 0.27% and 0.37% and 0.52% and 0.29% and 0.67%
same,% Recovered Dose-Female Animals-Urine per Day-Day 11 Necropsy,"animal group I, day 1, female mice",7.77% and 13.56% and 9.39% and 8.83% and 9.40% and 8.09% and 8.07% and 7.99%
same,% Recovered Dose-Female Animals-Urine per Day-Day 11 Necropsy,"animal group I, day 3, female mice",5.15% and 4.91% and 4.95% and 3.52% and 6.42% and 5.63% and 7.70%
same,% Recovered Dose-Female Animals-Urine per Day-Day 11 Necropsy,"animal group I, day 4, female mice",2.76% and 3.63% and 3.08% and 3.06% and 4.72% and 4.39%
same,% Recovered Dose-Female Animals-Urine per Day-Day 11 Necropsy,"animal group I, day 5, female mice",2.07% and 2.10% and 1.73% and 1.67% and 1.85% and 1.81% and 1.59%
same,% Recovered Dose-Female Animals-Urine per Day-Day 11 Necropsy,"animal group I, day 6, female mice",1.80% and 2.08% and 1.82% and 1.64% and 2.11% and 1.61% and 1.48%
same,% Recovered Dose-Female Animals-Urine per Day-Day 11 Necropsy,"animal group I, day 7, female mice",1.20% and 1.23% and 1.07% and 1.17% and 1.43% and 1.94% and 1.45%
same,% Recovered Dose-Female Animals-Urine per Day-Day 11 Necropsy,"animal group I, day 8, female mice",0.79% and 1.03% and 0.78% and 0.83% and 0.67% and 0.96% and 0.90%
same,% Recovered Dose-Female Animals-Urine per Day-Day 11 Necropsy,"animal group I, day 9, female mice",0.82% and 0.67% and 0.59% and 0.61% and 0.55% and 0.69% and 0.52%
same,% Recovered Dose-Female Animals-Urine per Day-Day 11 Necropsy,"animal group I, day 10, female mice",0.78% and 0.49% and 0.52% and 0.32% and 0.31% and 0.55% and 0.45%
same,% Recovered Dose-Female Animals-Urine per Day-Day 11 Necropsy,"animal group I, day 11, female mice",0.67% and 0.65% and 0.58% and 0.43% and 0.46% and 0.89% and 0.44%
same,% Recovered Dose-Female Animals-Urine per Day-Day 11 Necropsy,"animal group L, day 1, female mice",5.35% and 10.51% and 3.65% and 5.09% and 9.71% and 8.91% and 9.38% and 5.37%
same,% Recovered Dose-Female Animals-Urine per Day-Day 11 Necropsy,"animal group L, day 2, female mice",9.62% and 11.11% and 5.95% and 8.55% and 8.68% and 12.54% and 10.49% and 9.01%
same,% Recovered Dose-Female Animals-Urine per Day-Day 11 Necropsy,"animal group L, day 3, female mice",5.07% and 4.30% and 2.41% and 3.68% and 5.39% and 4.44% and 3.21% and 5.10%
same,% Recovered Dose-Female Animals-Urine per Day-Day 11 Necropsy,"animal group L, day 4, female mice",4.52% and 3.28% and 1.82% and 3.38% and 3.96% and 3.67% and 4.12% and 5.10%
same,% Recovered Dose-Female Animals-Urine per Day-Day 11 Necropsy,"animal group L, day 5, female mice",2.41% and 2.57% and 6.05% and 2.26% and 2.77% and 2.39% and 2.74% and 3.54%
same,% Recovered Dose-Female Animals-Urine per Day-Day 11 Necropsy,"animal group L, day 6, female mice",1.58% and 1.95% and 4.31% and 3.12% and 2.44% and 1.42% and 1.86% and 2.87%
same,% Recovered Dose-Female Animals-Urine per Day-Day 11 Necropsy,"animal group L, day 7, female mice",2.68% and 4.39% and 2.50% and 2.41% and 2.29% and 1.58% and 2.14% and 2.03%
same,% Recovered Dose-Female Animals-Urine per Day-Day 11 Necropsy,"animal group L, day 8, female mice",2.01% and 6.27% and 1.63% and 1.89% and 1.73% and 1.02% and 1.29% and 1.12%
same,% Recovered Dose-Female Animals-Urine per Day-Day 11 Necropsy,"animal group L, day 9, female mice",0.99% and 3.81% and 0.96% and 1.05% and 0.50% and 0.53% and 0.57%
same,% Recovered Dose-Female Animals-Urine per Day-Day 11 Necropsy,"animal group L, day 10, female mice",1.29% and 1.70% and 0.71% and 1.04% and 0.44% and 0.60% and 0.41%
same,% Recovered Dose-Female Animals-Urine per Day-Day 11 Necropsy,"animal group L, day 11, female mice",0.70% and 1.28% and 0.58% and 0.75% and 0.68% and 0.40% and 0.72% and 0.59%
same,% Recovered Dose-Female Animals-Urine per Day-Day 11 Necropsy,"animal group M, day 1, female mice",8.44% and 9.22% and 6.58% and 5.72% and 8.33% and 7.11% and 8.76% and 7.62%
same,% Recovered Dose-Female Animals-Urine per Day-Day 11 Necropsy,"animal group M, day 2, female mice",6.23% and 7.89% and 7.02% and 10.02% and 10.31% and 12.05% and 7.08% and 9.14%
same,% Recovered Dose-Female Animals-Urine per Day-Day 11 Necropsy,"animal group M, day 3, female mice",2.30% and 3.50% and 4.87% and 4.65% and 3.13% and 1.94% and 3.83% and 3.56%
same,% Recovered Dose-Female Animals-Urine per Day-Day 11 Necropsy,"animal group M, day 4, female mice",3.18% and 2.79% and 3.46% and 4.28% and 3.48% and 2.77% and 2.90% and 3.40%
same,% Recovered Dose-Female Animals-Urine per Day-Day 11 Necropsy,"animal group M, day 5, female mice",1.90% and 2.00% and 3.07% and 4.53% and 2.38% and 1.31% and 2.10% and 2.52%
same,% Recovered Dose-Female Animals-Urine per Day-Day 11 Necropsy,"animal group M, day 6, female mice",2.20% and 3.65% and 3.85% and 2.48% and 2.57% and 1.91% and 3.39% and 2.63%
same,% Recovered Dose-Female Animals-Urine per Day-Day 11 Necropsy,"animal group M, day 7, female mice",1.09% and 4.12% and 3.24% and 1.63% and 2.05% and 0.95% and 2.29% and 2.08%
same,% Recovered Dose-Female Animals-Urine per Day-Day 11 Necropsy,"animal group M, day 8, female mice",1.16% and 1.96% and 1.85% and 1.17% and 1.59% and 1.23% and 1.36% and 1.47%
same,% Recovered Dose-Female Animals-Urine per Day-Day 11 Necropsy,"animal group M, day 9, female mice",0.89% and 0.80% and 0.95% and 0.56% and 0.83% and 0.91% and 1.12% and 1.20%
same,% Recovered Dose-Female Animals-Urine per Day-Day 11 Necropsy,"animal group M, day 10, female mice",0.48% and 0.61% and 0.71% and 0.70% and 1.03% and 1.20% and 1.18%
